Measured values from ChEMBL document CHEMBL1144356 (J Med Chem, 2005).

What was measured:
[1] = target: T1, Peroxisome proliferator-activated receptor gamma (Homo sapiens, UniProt P37231); experiment: Effective concentration against human PPAR-gamma in Gal4 transactivation assay; 12% response at 3 uM; format: functional
T1 sequence (P37231 whole entry): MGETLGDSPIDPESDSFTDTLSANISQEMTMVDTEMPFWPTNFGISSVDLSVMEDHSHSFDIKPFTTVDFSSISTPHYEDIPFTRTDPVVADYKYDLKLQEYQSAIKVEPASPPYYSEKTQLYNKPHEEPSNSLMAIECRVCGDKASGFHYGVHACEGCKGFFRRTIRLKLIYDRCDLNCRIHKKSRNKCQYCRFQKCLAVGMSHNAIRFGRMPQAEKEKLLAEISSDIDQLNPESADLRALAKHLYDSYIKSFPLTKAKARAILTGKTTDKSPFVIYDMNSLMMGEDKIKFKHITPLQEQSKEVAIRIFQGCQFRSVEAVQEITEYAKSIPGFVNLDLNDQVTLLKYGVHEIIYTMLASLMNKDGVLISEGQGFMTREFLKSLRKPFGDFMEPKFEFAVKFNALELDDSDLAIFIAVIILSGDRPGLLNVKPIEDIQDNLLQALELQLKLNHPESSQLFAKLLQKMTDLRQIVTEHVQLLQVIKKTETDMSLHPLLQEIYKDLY

[2] = target: T2, Peroxisome proliferator-activated receptor alpha (Canis lupus familiaris, UniProt Q95N78); experiment: Effective concentration against canine PPAR-alpha in Gal4 transactivation assay
T2 sequence (Q95N78 whole entry): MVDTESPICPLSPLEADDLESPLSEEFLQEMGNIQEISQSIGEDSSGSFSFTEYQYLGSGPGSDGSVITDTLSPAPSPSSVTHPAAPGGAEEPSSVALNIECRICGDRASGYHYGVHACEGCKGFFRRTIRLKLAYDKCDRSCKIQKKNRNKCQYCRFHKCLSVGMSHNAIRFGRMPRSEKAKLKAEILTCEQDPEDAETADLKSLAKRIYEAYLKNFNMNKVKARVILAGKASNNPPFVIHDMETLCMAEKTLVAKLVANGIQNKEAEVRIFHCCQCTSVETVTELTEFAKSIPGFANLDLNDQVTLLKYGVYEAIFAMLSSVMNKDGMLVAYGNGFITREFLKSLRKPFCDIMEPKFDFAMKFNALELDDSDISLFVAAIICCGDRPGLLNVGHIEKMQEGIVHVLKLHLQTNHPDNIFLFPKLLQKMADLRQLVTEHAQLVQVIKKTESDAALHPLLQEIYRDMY

[3] = target: T3, Peroxisome proliferator-activated receptor delta (Homo sapiens, UniProt Q03181); experiment: In vitro binding affinity for PPAR-delta
T3 sequence (Q03181 whole entry): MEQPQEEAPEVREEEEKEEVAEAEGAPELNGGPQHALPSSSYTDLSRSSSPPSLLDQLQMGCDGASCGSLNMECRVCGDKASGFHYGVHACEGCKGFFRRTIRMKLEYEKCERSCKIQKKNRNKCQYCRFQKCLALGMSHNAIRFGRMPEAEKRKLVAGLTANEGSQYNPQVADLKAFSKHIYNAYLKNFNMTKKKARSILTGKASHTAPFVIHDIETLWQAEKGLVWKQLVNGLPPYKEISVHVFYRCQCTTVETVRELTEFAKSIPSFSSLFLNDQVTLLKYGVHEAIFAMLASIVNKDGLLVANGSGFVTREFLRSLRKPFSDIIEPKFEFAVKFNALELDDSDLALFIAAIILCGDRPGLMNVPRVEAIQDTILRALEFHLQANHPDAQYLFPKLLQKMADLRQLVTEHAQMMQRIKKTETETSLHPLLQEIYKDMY

[4] = In vitro binding affinity for PPAR-alpha; parameters: species or system Homo sapiens
[5] = target: T1, Peroxisome proliferator-activated receptor gamma; experiment: In vitro binding affinity for PPAR-gamma
[6] = target: T1, Peroxisome proliferator-activated receptor gamma; experiment: Effective concentration against human PPAR-gamma in Gal4 transactivation assay; 56% response at 3 uM; format: functional
[7] = target: T4, Peroxisome proliferator-activated receptor alpha (Homo sapiens, UniProt Q07869); experiment: Effective concentration against human PPAR-alpha in Gal4 transactivation assay; format: functional
T4 sequence (Q07869 whole entry): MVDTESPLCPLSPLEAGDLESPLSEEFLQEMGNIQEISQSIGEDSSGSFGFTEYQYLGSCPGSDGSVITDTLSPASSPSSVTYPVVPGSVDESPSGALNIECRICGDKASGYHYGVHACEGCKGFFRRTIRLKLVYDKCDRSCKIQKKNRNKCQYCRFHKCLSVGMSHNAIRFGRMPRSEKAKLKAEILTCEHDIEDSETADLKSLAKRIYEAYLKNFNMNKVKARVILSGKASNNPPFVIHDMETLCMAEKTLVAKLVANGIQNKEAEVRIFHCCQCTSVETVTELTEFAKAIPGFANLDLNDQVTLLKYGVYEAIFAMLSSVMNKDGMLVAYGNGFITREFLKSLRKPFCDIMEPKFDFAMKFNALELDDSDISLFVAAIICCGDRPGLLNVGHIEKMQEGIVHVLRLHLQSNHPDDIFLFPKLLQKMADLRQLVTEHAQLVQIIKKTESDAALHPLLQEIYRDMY

[8] = target: T1, Peroxisome proliferator-activated receptor gamma; experiment: Effective concentration against human PPAR-gamma in Gal4 transactivation assay; 59% response at 3 uM; format: functional
[9] = target: T1, Peroxisome proliferator-activated receptor gamma; experiment: Effective concentration against human PPAR-gamma in Gal4 transactivation assay; format: functional
[10] = target: T1, Peroxisome proliferator-activated receptor gamma; experiment: Effective concentration against human PPAR-gamma in Gal4 transactivation assay; 2% response at 3 uM; format: functional
[11] = target: T1, Peroxisome proliferator-activated receptor gamma; experiment: Effective concentration against human PPAR-gamma in Gal4 transactivation assay; 19% response at 3 uM; format: functional
[12] = target: T1, Peroxisome proliferator-activated receptor gamma; experiment: Effective concentration required to produce 50% of maximal reporter activity in cell based transactivation assay using human PPAR-gamma-GAL4 chimeric receptor; 6% response at 3 uM ccompound concentration; format: functional
[13] = target: T1, Peroxisome proliferator-activated receptor gamma; experiment: Effective concentration against human PPAR-gamma in Gal4 transactivation assay; 30% response at 3 uM; format: functional
[14] = test system: Canis familiaris; experiment: Effect on cholesterol lowering in male Beagle dog at an oral dose of 50 mkd for 10 days; format: functional, Canis lupus familiaris
[15] = test system: Canis familiaris; experiment: Effect on cholesterol lowering in male Beagle dog at an oral dose of 50 mkd for 3 days; format: functional, Canis lupus familiaris
[16] = test system: Cricetinae gen. sp.; experiment: Effect at an oral dose of 100 mg/kg/day for 14 days on serum cholesterol level of hamster; format: functional, Cricetulus griseus
[17] = test system: Canis familiaris; experiment: Effect on cholesterol lowering in male Beagle dog at an oral dose of 50 mkd for 7 days; format: functional, Canis lupus familiaris
[18] = test system: Cricetinae gen. sp.; experiment: Effect at an oral dose of 100 mg/kg/day for 14 days on serum triglyceride level of hamster; format: functional, Cricetulus griseus
[19] = test system: Canis familiaris; experiment: Effect on cholesterol lowering in male Beagle dog at an oral dose of 50 mkd for 15 days; format: functional, Canis lupus familiaris
[20] = test system: Canis familiaris; experiment: Effect on cholesterol lowering in male Beagle dog at an oral dose of 4 mkd for 7 days; format: functional, Canis lupus familiaris
[21] = test system: Canis familiaris; experiment: Effect on cholesterol lowering in male Beagle dog at an oral dose of 4 mkd for 3 days; format: functional, Canis lupus familiaris
[22] = test system: Canis familiaris; experiment: Effect on cholesterol lowering in male Beagle dog at an oral dose of 4 mkd for 10 days; format: functional, Canis lupus familiaris
[23] = test system: Canis familiaris; experiment: Effect on cholesterol lowering in male Beagle dog at an oral dose of 4 mkd for 15 days; format: functional, Canis lupus familiaris

| Structure (SMILES) | EC50 [2] | IC50 [3] | IC50 [4] | IC50 [5] | EC50 [7] | also measured |
| --- | --- | --- | --- | --- | --- | --- |
| CCC1(C(=O)O)Cc2cc(OCCCOc3ccc(CC(C)(C)C)cc3Cl)ccc2O1 (racemic) | 2 nM | > 50000 nM | 4 nM | 5600 nM |  | EC50 [1]: > 3000 nM |
| CCC1(C(=O)O)Cc2cc(OCCCOc3ccc(C(C)(C)C)cc3Cl)ccc2O1 (racemic) | 20 nM | > 15000 nM | 17 nM | 4330 nM | 9 nM | EC50 [6]: > 3000 nM |
| CCCc1cc(SC(F)(F)F)ccc1OCCCOc1ccc2c(c1)CC(CC)(C(=O)O)O2 (racemic) | < 1 nM | 5230 nM | 11 nM | 3110 nM | 8 nM | EC50 [8]: > 3000 nM |
| CC1(C(=O)O)Cc2cc(OCCCOc3ccc(OCC(F)(F)F)cc3Cl)ccc2O1 (racemic) | 42 nM | > 15000 nM | 106 nM | > 15000 nM | 138 nM | EC50 [9]: > 3000 nM |
| O=C(O)C1(C(F)(F)F)Cc2cc(OCCCOc3ccc(CC(F)(F)F)cc3Cl)ccc2O1 (racemic) | 26 nM | 399 nM | 9 nM | > 15000 nM | 37 nM | EC50 [10]: > 3000 nM |
| CCC1(C(=O)O)Cc2cc(OCCCOc3ccc(OCC(F)(F)F)cc3Cl)ccc2O1 (racemic) | 8 nM | > 15000 nM | 32 nM | > 15000 nM | 34 nM | EC50 [11]: > 3000 nM |
| O=C(O)C1(Cc2ccccc2)Cc2cc(OCCCOc3ccc(OC(F)(F)F)cc3Cl)ccc2O1 (racemic) |  | > 50000 nM | 275 nM | > 15000 nM |  |  |
| O=C(O)C1Cc2cc(OCCCOc3ccc(OCC(F)(F)F)cc3Cl)ccc2O1 (racemic) | 1350 nM | > 15000 nM | 786 nM | > 15000 nM |  |  |
| CC(C)(C)C1(C(=O)O)Cc2cc(OCCCOc3ccc(CC(F)(F)F)cc3Cl)ccc2O1 (racemic) | 2 nM | > 50000 nM | 7 nM | > 15000 nM |  | EC50 [12]: > 3000 nM |
| CCC1(C(=O)O)Cc2cc(OCCCOc3ccc(SC(F)(F)F)cc3Cl)ccc2O1 (racemic) | < 1 nM | > 15000 nM | 3 nM | 6770 nM | 3 nM | EC50 [13]: > 3000 nM |
| CC(C)OC(=O)C(C)(C)Oc1ccc(C(=O)c2ccc(Cl)cc2)cc1 [FENOFIBRATE] |  |  |  |  |  | TC [14]: -5.9%; TC [15]: -2.2%; TC [16]: -28.55%; TC [17]: -5.5%; TG [18]: -24.08%; TC [19]: -12.3% |
| CCC(C)(C)C(=O)O[C@H]1C[C@@H](C)C=C2C=C[C@H](C)[C@H](CC[C@@H]3C[C@@H](O)CC(=O)O3)[C@H]21 [SIMVASTATIN] |  |  |  |  |  | TC [20]: -13.3%; TC [21]: -7.8%; TC [22]: -9.9%; TC [23]: -17.1% |
